Laboratory results reported in patent publication US5260465A, “Inhibitors of farnesyl protein transferase” (Merck & Co., Inc., priority 1991, dated 1993).

Columns and labels:
[1] = pH-dependent equilibrium / solution form of anhydride (9) and diacid (10), followed by UV; assay type: physicochemical; details: for predominant form in solution (diacid/anhydride equilibrium): in a solution, pH dependent
From the text: The equilibrium between diacid (10) and anhydride (9) in a solution is pH dependent. […] However, when basified with dil NaOH, this maximum shifted to λmax 243 run. This shift is clear evidence of opening of the anhydride into the diacid. [drawing 8]
The latter band underwent a hypsochromic shift to 240 run after addition of dil NAOH.

[2] = target: T1, Farnesyl-protein transferase (FTase) from bovine brain (Bos taurus, UniProt P29702+P49355); experiment: Inhibition of Ras farnesylation in vitro (FTase assay with Ras-CVLS and [3H]FPP); assay type: biochemical; details: for IC50: Ras-CVLS 3.5 μM, 0.25 μM [3H]FPP, partially purified enzyme, compound (9) or (10), under assay conditions open dicarboxylate form
T1 construct: Farnesyl-protein transferase (FTase) from bovine brain was chromatographed on DEAE-Sephacel; from tissue; host or cells: bovine brain, partially purified (DEAE-Sephacel, N-octyl agarose, mono Q)
Experimental: The intrinsic farnesyl-protein transferase (FTase) activity of representative compounds of this invention was measured by the assay as described below:
Farnesyl-protein transferase (FTase) from bovine brain was chromatographed on DEAE-Sephacel (Pharmacia, 0-0.8M NaCl gradient elution), N-octyl agarose (Sigma, 0-0.6M NaCl gradient elution), and a mono Q HPLC column (Pharmacia, 0-0.3M NaCl gradient). Ras-CVLS (Cys-Val-Leu-Ser) at 3.5 μM, 0.25 μM [^3 H]FPP, and the indicated compounds were incubated with this partially purified enzyme preparation. The FTase inhibition data presented below is a measurement of the ability of the test compound to inhibit Ras farnesylation in vitro.

HMG-CoA reductase = details: cited from earlier work
Ras farnesylation = details: Hancock et al., Casey et al., Schafer et al.; cited from earlier work

Row | Structure (SMILES) | predominant form in solution (diacid/anhydride equilibrium) [1] | reactivity with CH3OH ([1]; methanolic solution) | IC50 [2] | form under assay conditions ([1]; CH3OH-HEPES buffer solution (7:5), pH 7.5) | existence in solution by pH ([1]; in solution) | Ras farnesyl transferase inhibitory activity of the diisopropylethylamine salt ([2]; open diacid (10) trapped as a diisopropylethylamine salt) | inhibition of HMG-CoA reductase (HMG-CoA reductase) | Inhibition of Ras farnesylation in vivo (Ras farnesylation)
1 | CCCCCCCC/C=C\CCCCCCC1=C(C)C(=O)OC1=O [Compound (9)] | predominates when the solution is acidic | reacts slowly with CH3 OH | 110 nM |  |  |  |  | 
2 | CCCCCCCC/C=C\CCCCCC/C(C(=O)O)=C(\C)C(=O)O [Compound (10)] | predominates when the solution is basic |  | 110 nM | exists substantially in the open dicarboxylate form | exists in solution at pH 7 and above | without any loss of Ras farnesyl transferase inhibitory activity |  | 
3 | CC[C@H](C)C(=O)O[C@H]1CCC=C2C=C[C@H](C)[C@H](CC[C@@H]3C[C@@H](O)CC(=O)O3)[C@H]21 [compactin] |  |  |  |  |  |  | inhibit HMG-CoA reductase | Inhibition of Ras farnesylation in vivo has been demonstrated
4 | CC[C@H](C)C(=O)O[C@H]1C[C@@H](C)C=C2C=C[C@H](C)[C@H](CC[C@@H]3C[C@@H](O)CC(=O)O3)[C@H]21 [lovastatin] |  |  |  |  |  |  | inhibit HMG-CoA reductase | Inhibition of Ras farnesylation in vivo has been demonstrated
